# Reference: patent publication US11980188B2, “Spiro cyclohexanedione derivates as herbicides” (SYNGENTA PARTICIPATIONS AG, priority 2018, dated 2024)
# Key:
# Test in all cases: Glasshouse herbicide test, pre- and post-emergence, percentage damage
# Type in all cases: in vivo
# Avena fatua (AVEFA) = conditions: 250 g/h, evaluated after 13 days, percentage damage on five point scale; for AVEFA POST: post-emergence; for AVEFA PRE: pre-emergence
# Experimental: (§1) Seeds of a variety of test species are sown in standard soil in pots (Lolium perenne (LOLPE), Setaria faberi (SETFA), Alopecurus myosuroides (ALOMY), Echinochloa crus-galli (ECHCG), Avena fatua (AVEFA)). After cultivation for one day (pre-emergence) or after 8 days cultivation (post-emergence) under controlled conditions in a glasshouse (at 24/16° C., day/night; 14 hours light; 65% humidity), the plants are sprayed with an aqueous spray solution derived from the formulation of the technical active ingredient in acetone/water (50:50) solution containing 0.5% Tween 20 (polyoxyethelyene sorbitan monolaurate, CAS RN 9005-64-5). Compounds are applied at […]. The test plants are then grown in a glasshouse under controlled conditions in a glasshouse (at 24/16° C., day/night; 14 hours light; 65% humidity) and watered twice daily. After 13 days for pre and post-emergence, the test is evaluated for the percentage damage caused to the plant. The biological activities are shown in the following table on a five point scale (5=80-100%; 4=60-79%; 3=40-59%; 2=20-39%; 1=0-19%).
# [1] = test system: Echinochloa crus-galli (ECHCG); conditions: 250 g/h, evaluated after 13 days, percentage damage on five point scale; for ECHCG POST: post-emergence; for ECHCG PRE: pre-emergence
# Experimental: as §1
# Lolium perenne (LOLPE) = conditions: 250 g/h, evaluated after 13 days, percentage damage on five point scale; for LOLPE POST: post-emergence; for LOLPE PRE: pre-emergence
# Experimental: as §1
# Setaria faberi (SETFA) = conditions: 250 g/h, evaluated after 13 days, percentage damage on five point scale; for SETFA POST: post-emergence; for SETFA PRE: pre-emergence
# Experimental: as §1
# [2] = test system: Alopecurus myosuroides (ALOMY); conditions: 250 g/h, evaluated after 13 days, percentage damage on five point scale; for ALOMY POST: post-emergence; for ALOMY PRE: pre-emergence
# Experimental: as §1
Structure (SMILES),AVEFA POST (Avena fatua (AVEFA)),AVEFA PRE (Avena fatua (AVEFA)),ECHCG POST [1],ECHCG PRE [1],LOLPE POST (Lolium perenne (LOLPE)),LOLPE PRE (Lolium perenne (LOLPE)),SETFA POST (Setaria faberi (SETFA)),SETFA PRE (Setaria faberi (SETFA)),ALOMY POST [2],ALOMY PRE [2]
COCC(=O)N1CCC2(CC1)CC(=O)C(c1c(C)cc(-c3ccc(C#N)cn3)cc1C)C(=O)C2 [Compound A25],5 (5=80-100%),5 (5=80-100%),5 (5=80-100%),5 (5=80-100%),5 (5=80-100%),5 (5=80-100%),5 (5=80-100%),5 (5=80-100%),5 (5=80-100%),5 (5=80-100%)
Cc1cc(-c2ccc(F)cc2)cc(C)c1C1C(=O)CC2(CCN(C(=O)CC#N)CC2)CC1=O [Compound A63],5 (5=80-100%),5 (5=80-100%),4 (4=60-79%),5 (5=80-100%),5 (5=80-100%),5 (5=80-100%),5 (5=80-100%),5 (5=80-100%),–,5 (5=80-100%)
CC(=O)OC1=C(c2c(C)cc(-c3ccc(F)cc3)cc2C)C(=O)CC2(CCN(C(C)=O)CC2)C1 [Compound P1],5 (5=80-100%),5 (5=80-100%),5 (5=80-100%),5 (5=80-100%),5 (5=80-100%),5 (5=80-100%),5 (5=80-100%),5 (5=80-100%),5 (5=80-100%),5 (5=80-100%)
CON1CCC2(CC1)CC(=O)C(c1c(C)cc(-n3cc(Cl)cn3)cc1C)C(=O)C2 [Compound A5],5 (5=80-100%),5 (5=80-100%),5 (5=80-100%),5 (5=80-100%),5 (5=80-100%),5 (5=80-100%),5 (5=80-100%),5 (5=80-100%),5 (5=80-100%),5 (5=80-100%)
CON1CCC2(CC1)CC(=O)C(c1c(C)cc(-c3ccc(F)cc3)cc1C)C(=O)C2 [Compound A6],5 (5=80-100%),5 (5=80-100%),5 (5=80-100%),5 (5=80-100%),5 (5=80-100%),5 (5=80-100%),5 (5=80-100%),5 (5=80-100%),5 (5=80-100%),5 (5=80-100%)
Cc1cc(-c2ccc(C#N)cn2)cc(C)c1C1C(=O)CC2(CCN(C(=O)CC#N)CC2)CC1=O [Compound A44],5 (5=80-100%),3 (3=40-59%),4 (4=60-79%),5 (5=80-100%),5 (5=80-100%),3 (3=40-59%),5 (5=80-100%),5 (5=80-100%),5 (5=80-100%),5 (5=80-100%)
Cc1cc(-c2ncc(F)cn2)cc(C)c1C1C(=O)CC2(CCN(C(=O)c3ccccn3)CC2)CC1=O [Compound A34],5 (5=80-100%),5 (5=80-100%),5 (5=80-100%),5 (5=80-100%),5 (5=80-100%),5 (5=80-100%),5 (5=80-100%),5 (5=80-100%),5 (5=80-100%),5 (5=80-100%)
COc1cc(-c2ccc(F)cc2)cc(C)c1C1C(=O)CC2(CCN(C(=O)NC(C)(C)C)CC2)CC1=O [Compound A68],5 (5=80-100%),4 (4=60-79%),5 (5=80-100%),5 (5=80-100%),5 (5=80-100%),4 (4=60-79%),5 (5=80-100%),5 (5=80-100%),–,–
CC(=O)N1CCC2(CC1)CC(=O)C(c1c(C)cc(-c3ccc(Cl)cc3)cc1C)C(=O)C2 [Compound A49],5 (5=80-100%),5 (5=80-100%),5 (5=80-100%),5 (5=80-100%),5 (5=80-100%),5 (5=80-100%),5 (5=80-100%),5 (5=80-100%),5 (5=80-100%),5 (5=80-100%)
COc1cc(-c2ncc(F)cn2)cc(C)c1C1C(=O)CC2(CCN(OC)CC2)CC1=O [Compound A10],5 (5=80-100%),5 (5=80-100%),5 (5=80-100%),5 (5=80-100%),5 (5=80-100%),5 (5=80-100%),5 (5=80-100%),5 (5=80-100%),5 (5=80-100%),5 (5=80-100%)
COc1cc(-c2ccc(F)cc2)cc(C)c1C1C(=O)CC2(CCN(C(=O)C3CC3)CC2)CC1=O [Compound A70],5 (5=80-100%),5 (5=80-100%),5 (5=80-100%),5 (5=80-100%),5 (5=80-100%),5 (5=80-100%),5 (5=80-100%),5 (5=80-100%),–,–
CCS(=O)(=O)N1CCC2(CC1)CC(=O)C(c1c(C)cc(-c3ccc(F)cc3)cc1OC)C(=O)C2 [Compound A64],5 (5=80-100%),5 (5=80-100%),5 (5=80-100%),5 (5=80-100%),5 (5=80-100%),5 (5=80-100%),5 (5=80-100%),5 (5=80-100%),–,–
COCC(=O)N1CCC2(CC1)CC(=O)C(c1c(C)cc(-c3ccc(F)cc3)cc1OC)C(=O)C2 [Compound A67],5 (5=80-100%),5 (5=80-100%),5 (5=80-100%),5 (5=80-100%),5 (5=80-100%),5 (5=80-100%),5 (5=80-100%),5 (5=80-100%),–,–
Cc1cc(-c2ccc(F)cc2)cc(C)c1C1C(=O)CC2(CCN(C(=O)NC(=O)c3ccccn3)CC2)CC1=O [Compound A62],5 (5=80-100%),2 (2=20-39%),3 (3=40-59%),1 (1=0-19%),2 (2=20-39%),2 (2=20-39%),5 (5=80-100%),3 (3=40-59%),–,–
COc1cc(-c2ccc(F)cc2)cc(C)c1C1C(=O)CC2(CCN(C(=O)C(C)(C)C)CC2)CC1=O [Compound A72],5 (5=80-100%),1 (1=0-19%),5 (5=80-100%),5 (5=80-100%),5 (5=80-100%),5 (5=80-100%),5 (5=80-100%),5 (5=80-100%),–,–
COc1cc(-c2ccc(F)cc2)cc(C)c1C1C(=O)CC2(CCN(C(=O)c3ccccn3)CC2)CC1=O [Compound A66],5 (5=80-100%),5 (5=80-100%),5 (5=80-100%),5 (5=80-100%),5 (5=80-100%),5 (5=80-100%),5 (5=80-100%),5 (5=80-100%),–,–
Cc1cc(-c2ccc(F)cc2)cc(C)c1C1C(=O)CC2(CCN(C(=O)NC(C)(C)C)CC2)CC1=O [Compound A57],4 (4=60-79%),1 (1=0-19%),5 (5=80-100%),5 (5=80-100%),5 (5=80-100%),5 (5=80-100%),5 (5=80-100%),5 (5=80-100%),–,–
COc1cc(-c2ccc(F)cc2)cc(C)c1C1C(=O)CC2(CCN(C(=O)CC#N)CC2)CC1=O [Compound A74],5 (5=80-100%),5 (5=80-100%),5 (5=80-100%),5 (5=80-100%),5 (5=80-100%),5 (5=80-100%),5 (5=80-100%),5 (5=80-100%),–,–
COc1cc(-c2ccc(F)cc2)cc(C)c1C1C(=O)CC2(CCN(C(=O)C(F)F)CC2)CC1=O [Compound A71],5 (5=80-100%),5 (5=80-100%),5 (5=80-100%),5 (5=80-100%),5 (5=80-100%),5 (5=80-100%),5 (5=80-100%),5 (5=80-100%),–,–
COc1cc(-c2ccc(F)cc2)cc(C)c1C1C(=O)CC2(CCN(C(=O)NC(=O)C(C)(C)C)CC2)CC1=O [Compound A69],5 (5=80-100%),2 (2=20-39%),5 (5=80-100%),5 (5=80-100%),5 (5=80-100%),4 (4=60-79%),5 (5=80-100%),5 (5=80-100%),–,–
